One assay has as its system ΔXPA cells. Description: Short-term survival after UV irradiation (CellTiter-Glo). It counts as cell-based, human. As to conditions: for protective effect of ΔXPA cells against UV (cell viability): different concentrations for 6 hours, then 10 J/M^2 UV (FIG. 10A-C). The source says:
A. Schematic representation of the experimental setup used to perform the high-throughput drug screen, where drugs were used at five-times maximal plasma concentration (CLOUD; CeMM library of unique drugs). B. Bubble plot displaying the drugs used plotted against cell viability. Light grey bubbles indicate wildtype (WT) cells, dark grey bubbles indicate XPA-deficient cells (ΔXPA). […] C. Chemical structure of acetohexamide. D. Dose-response curve of WT and ΔXPA cells treated with or without 0.5 mM acetohexamide for 6 hours, followed by UV irradiation. Survival was assessed after 3 days, using CellTiter-Glo. […] Error bars indicate SEM (n=3). E. Colony formation using the same conditions indicated in (D), where cells were kept in culture for 10 days following UV irradiation, following which they were fixed and stained.
A-C. Cell viability of ΔXPA cells treated with different concentrations of acetohexamide (aceto), gliclazide (GLC) and glimepiride (GLM) for 6 hours, followed by 10 J/M^2 of UV irradiation. D. Survival of WT and ΔXPA cells treated with or without 50 μM glibenclamide for 6 hours, followed by UV exposure. Survival was assessed after 3 days using CellTitre-Glo. E. Cell viability of ΔXPA cells treated with 10 μM of different derivatives of acetohexamide for 6 hours, followed by UV irradiation with 5 J/M^2.
(§1) For UV irradiation, cells were washed with PBS, trypsinized, counted and distributed in equal number then irradiated with different doses of UV as indicated. Finally, 1,000 cells were re-distributed into 96 well plates. After 72 hours, survival was measured using Cell Titer-Glo (Promega). Cells were irradiated with UVC using the UVP CX-2000 device (254 nm, Fisher Scientific).

The next assay deals with WT cells. Description: Cell viability of WT cells after UV exposure, comparison with antioxidant. It counts as cell-based, human. As to conditions: 30 μM NAC for 6 hours, then 30 J/M^2 UV, compared with 0.5 mM acetohexamide (FIG. 8E). The protocol: A. WT and ΔXPA cells were either treated with DMSO or 0.5 mM acetohexamide for 6 hours. Cell cycle profiles were determined using propidium iodide (P1) staining followed by FACS analysis. B-D. Survival of WT HAP1 cells treated with either DMSO or 0.5 mM acetohexamide for 6 hours, followed by exposure to the indicated DNA damaging agents (MMC: mitomycin C; HU: hydroxyl urea; MMS: methyl methanesulfonate). Survival was assessed after 3 days using CellTitre-Glo. E. Cell viability of WT cells treated either with 0.5 mM acetohexamide or 30 μM N-acetylcysteine (NAC) for 6 hours, followed by 30 J/M^2 UV exposure.
as §1

Consider four compounds from patent US20200171056A1, “SULFONYLUREA COMPOUNDS IN THE TREATMENT OF DISEASE ASSOCIATED WITH UV-INDUCED DAMAGE” (CeMM - Forschungszentrum für Molekulare Medizin GmbH, priority 2017, published 2020).

Take `COc1ccc(Cl)cc1C(=O)NCCc1ccc(S(=O)(=O)NC(=O)NC2CCCCC2)cc1` [glibenclamide]: the “protective effect of ΔXPA cells against UV (survival)” value in the assay on ΔXPA cells (50 μM for 6 hours, then UV, survival after 3 days (FIG. 10D)) is listed as “Only glimepiride showed a protective effect”.
On to `CCC1=C(C)CN(C(=O)NCCc2ccc(S(=O)(=O)NC(=O)N[C@H]3CC[C@H](C)CC3)cc2)C1=O` [glimepiride], for which the “protective effect of ΔXPA cells against UV (cell viability)” value in the assay with ΔXPA cells is recorded as “showed a protective effect”.
In the case of `CC(=O)N[C@@H](CS)C(=O)O` [N-acetylcysteine], the “alleviating UV-induced sensitivity (cell viability)” value in the assay on WT cells is “very minor effect in alleviating UV-induced sensitivity compared to acetohexamide”.
For the compound `Cc1ccc(S(=O)(=O)NC(=O)NN2CC3CCCC3C2)cc1` (stereo not shown) [gliclazide], the “protective effect of ΔXPA cells against UV (cell viability)” value with ΔXPA cells was “Only glimepiride showed a protective effect”.
